Measurements reported in ChEMBL document CHEMBL3885861, “Open TG-GATES”.

Species: Rattus norvegicus
Assay: Open TG-GATES - Regimen: Single
Type: toxicity, organism-based, Sprague-Dawley
Set-up: regimen Single, gender Male, age 6 weeks
Details: in vivo, po, 60 mg/kg, route gavage, dose level Low; for APTT / Bas / Eos / Fbg / Hb / Ht / Lym / MCH / MCHC / MCV / Mono / Neu / PT / Plat / RBC / Ret / WBC: tissue Blood; for KIDNEY_L / KIDNEY_R / KIDNEY_TOTAL: tissue Kidney; for LIVER: tissue Liver; for A/G / ALP / ALT / AST / BUN / CRE / Ca / Cl / DBIL / GLC / IP / K / LDH / Na / PL / RALB / TBIL / TC / TG / TP / gamma-GTP: tissue Plasma

CCOC(=O)[C@H](CCc1ccccc1)N[C@@H](C)C(=O)N1CCC[C@H]1C(=O)O
TERMINAL_BW (3 h): 218.9 g
APTT (3 h): 15.9 s
Bas (3 h): 0%
Eos (3 h): 1%
Fbg (3 h): 216 mg/dL
Hb (3 h): 13.2 g/dL
Ht (3 h): 40.3%
Lym (3 h): 75.6%
MCH (3 h): 21.3 pg
MCHC (3 h): 32.8%
MCV (3 h): 64.7 fL
Mono (3 h): 9.4%
Neu (3 h): 14%
PT (3 h): 12 s
Plat (3 h): 113.1 x10_4/uL
RBC (3 h): 622.2 x10_4/ul
Ret (3 h): 8.4%
WBC (3 h): 113.3 x10_2/uL
KIDNEY_L (3 h): 0.9 g
KIDNEY_R (3 h): 0.9 g
KIDNEY_TOTAL (3 h): 1.9 g
LIVER (3 h): 10.3 g
A/G (3 h): 1.9
ALP (3 h): 851.2 IU/L
ALT (3 h): 38.6 IU/L
AST (3 h): 65.6 IU/L
BUN (3 h): 18.2 mg/dL
CRE (3 h): 0.5 mg/dL
Ca (3 h): 11 mg/dL
Cl (3 h): 106 meq/L
DBIL (3 h): 0.018 mg/dL
GLC (3 h): 203.8 mg/dL
IP (3 h): 9.8 mg/dL
K (3 h): 5.3 meq/L
LDH (3 h): 85 IU/L
Na (3 h): 138.8 meq/L
PL (3 h): 142.2 mg/dL
RALB (3 h): 3.4 g/dL
TBIL (3 h): 0.3 mg/dL
TC (3 h): 84 mg/dL
TG (3 h): 52.2 mg/dL
TP (3 h): 5.3 g/dL
gamma-GTP (3 h): 1.8 IU/L
TERMINAL_BW (6 h): 221.6 g
APTT (6 h): 15.7 s
Bas (6 h): 0%
Eos (6 h): 1%
Fbg (6 h): 200 mg/dL
Hb (6 h): 13.1 g/dL
Ht (6 h): 39.2%
Lym (6 h): 79.8%
MCH (6 h): 21.7 pg
MCHC (6 h): 33.3%
MCV (6 h): 65.2 fL
Mono (6 h): 5.2%
Neu (6 h): 14.6%
PT (6 h): 12 s
Plat (6 h): 110.6 x10_4/uL
RBC (6 h): 602.6 x10_4/ul
Ret (6 h): 9.2%
WBC (6 h): 122.1 x10_2/uL
KIDNEY_L (6 h): 1 g
KIDNEY_R (6 h): 1 g
KIDNEY_TOTAL (6 h): 2 g
LIVER (6 h): 9.9 g
A/G (6 h): 2.2
ALP (6 h): 728.2 IU/L
ALT (6 h): 36.2 IU/L
AST (6 h): 60.4 IU/L
BUN (6 h): 22 mg/dL
CRE (6 h): 0.5 mg/dL
Ca (6 h): 11.1 mg/dL
Cl (6 h): 104.8 meq/L
DBIL (6 h): 0.054 mg/dL
GLC (6 h): 196 mg/dL
IP (6 h): 10.9 mg/dL
K (6 h): 4.9 meq/L
LDH (6 h): 85.2 IU/L
Na (6 h): 139.4 meq/L
PL (6 h): 136 mg/dL
RALB (6 h): 3.6 g/dL
TBIL (6 h): 0.5 mg/dL
TC (6 h): 78.2 mg/dL
TG (6 h): 44.4 mg/dL
TP (6 h): 5.3 g/dL
gamma-GTP (6 h): 1.4 IU/L
TERMINAL_BW (9 h): 216 g
APTT (9 h): 16.1 s
Bas (9 h): 0%
Eos (9 h): 1.2%
Fbg (9 h): 195 mg/dL
Hb (9 h): 12.7 g/dL
Ht (9 h): 39.1%
Lym (9 h): 77%
MCH (9 h): 21.6 pg
MCHC (9 h): 32.6%
MCV (9 h): 66.3 fL
Mono (9 h): 4.4%
Neu (9 h): 17%
PT (9 h): 11.7 s
Plat (9 h): 111.5 x10_4/uL
RBC (9 h): 590 x10_4/ul
Ret (9 h): 8.6%
WBC (9 h): 87.4 x10_2/uL
KIDNEY_L (9 h): 1 g
KIDNEY_R (9 h): 1 g
KIDNEY_TOTAL (9 h): 2 g
LIVER (9 h): 9.2 g
A/G (9 h): 1.9
ALP (9 h): 839.6 IU/L
ALT (9 h): 33.2 IU/L
AST (9 h): 69 IU/L
BUN (9 h): 20.2 mg/dL
CRE (9 h): 0.4 mg/dL
Ca (9 h): 10.6 mg/dL
Cl (9 h): 107 meq/L
DBIL (9 h): 0.02 mg/dL
GLC (9 h): 193.4 mg/dL
IP (9 h): 11 mg/dL
K (9 h): 5.1 meq/L
LDH (9 h): 89.4 IU/L
Na (9 h): 138.4 meq/L
PL (9 h): 122.2 mg/dL
RALB (9 h): 3.5 g/dL
TBIL (9 h): 0.4 mg/dL
TC (9 h): 66.8 mg/dL
TG (9 h): 57 mg/dL
TP (9 h): 5.3 g/dL
gamma-GTP (9 h): 1.6 IU/L
TERMINAL_BW (24 h): 228.5 g
APTT (24 h): 16.3 s
Bas (24 h): 0%
Eos (24 h): 1.4%
Fbg (24 h): 220 mg/dL
Hb (24 h): 12.9 g/dL
Ht (24 h): 39.1%
Lym (24 h): 79.6%
MCH (24 h): 21.5 pg
MCHC (24 h): 33.2%
MCV (24 h): 65 fL
Mono (24 h): 5.4%
Neu (24 h): 14%
PT (24 h): 11 s
Plat (24 h): 114.8 x10_4/uL
RBC (24 h): 602.4 x10_4/ul
Ret (24 h): 8.9%
WBC (24 h): 88.3 x10_2/uL
KIDNEY_L (24 h): 1 g
KIDNEY_R (24 h): 1 g
KIDNEY_TOTAL (24 h): 2.1 g
LIVER (24 h): 11.3 g
A/G (24 h): 2.1
ALP (24 h): 986.4 IU/L
ALT (24 h): 39.2 IU/L
AST (24 h): 61.4 IU/L
BUN (24 h): 16.8 mg/dL
CRE (24 h): 0.5 mg/dL
Ca (24 h): 11.1 mg/dL
Cl (24 h): 104.6 meq/L
DBIL (24 h): 0.006 mg/dL
GLC (24 h): 202.4 mg/dL
IP (24 h): 8.6 mg/dL
K (24 h): 5.4 meq/L
LDH (24 h): 110.4 IU/L
Na (24 h): 138.6 meq/L
PL (24 h): 157.2 mg/dL
RALB (24 h): 3.9 g/dL
TBIL (24 h): 0.4 mg/dL
TC (24 h): 89.4 mg/dL
TG (24 h): 94.6 mg/dL
TP (24 h): 5.8 g/dL
gamma-GTP (24 h): 1.8 IU/L
